Reference: the OligoGym collection
Several values for one entry are separate records, joined by “and”; a condition that tells them apart may be missing. Identical values can stand only once. HELM strings list units from the 5' end as sugar, base in round brackets, then linkage (d deoxyribose, r ribose, m 2'-O-methyl, p phosphodiester). Methylation of C is not given here. [moe] = 2'-O-(2-methoxyethyl) (MOE); [cEt] = constrained ethyl (cEt); [sp] = phosphorothioate linkage

Molecular target: HBV
Conditions: ASO, HepG2, 0.07 µM

Substance | target mRNA inhibition
RNA1{[moe](G)[sp].[moe](G)[sp].[moe](T)[sp].d(G)[sp].d(A)[sp].d(A)[sp].d(G)[sp].d(C)[sp].d(G)[sp].d(A)[sp].d(A)[sp].d(G)[sp].[moe](T)[sp].[moe](G)[sp].[moe](C)[sp].[moe](A)[sp].[moe](C)}$$$$V2.0 | 78% and 64%
RNA1{[moe](A)[sp].[moe](G)[sp].[moe](G)[sp].[moe](T)[sp].[moe](G)[sp].d(A)[sp].d(A)[sp].d(G)[sp].d(C)[sp].d(G)[sp].d(A)[sp].d(A)[sp].d(G)[sp].d(T)[sp].[moe](G)[sp].[moe](C)[sp].[moe](A)}$$$$V2.0 | 73% and 56%
RNA1{[moe](C)[sp].[cEt](G)[sp].d(G)[sp].d(G)[sp].d(C)[sp].d(A)[sp].d(A)[sp].d(C)[sp].d(A)[sp].d(T)[sp].d(A)[sp].d(C)[sp].[cEt](C)[sp].[moe](T)[sp].[cEt](T)[sp].[moe](G)}$$$$V2.0 | 72% and 65%
RNA1{[moe](C)[sp].[cEt](T)[sp].d(A)[sp].d(G)[sp].d(T)[sp].d(A)[sp].d(A)[sp].d(A)[sp].d(C)[sp].d(T)[sp].d(G)[sp].d(A)[sp].[cEt](G)[sp].[moe](C)[sp].[cEt](C)[sp].[moe](A)}$$$$V2.0 | 74% and 76%
RNA1{[moe](T)[sp].[moe](C)[sp].[moe](C)[sp].d(G)[sp].d(C)[sp].d(A)[sp].d(G)[sp].d(T)[sp].d(A)[sp].d(T)[sp].d(G)[sp].d(G)[sp].[moe](A)[sp].[moe](T)[sp].[moe](C)[sp].[moe](G)[sp].[moe](G)}$$$$V2.0 | 68% and 58%
RNA1{[moe](G)[sp].[moe](A)[sp].[moe](G)[sp].[moe](G)[sp].d(C)[sp].d(A)[sp].d(T)[sp].d(A)[sp].d(G)[sp].d(C)[sp].d(A)[sp].d(G)[sp].d(C)[sp].[moe](A)[sp].[moe](G)[sp].[moe](G)[sp].[moe](A)}$$$$V2.0 | 35%
RNA1{[moe](A)[sp].[moe](G)[sp].[moe](G)[sp].d(C)[sp].d(A)[sp].d(T)[sp].d(A)[sp].d(G)[sp].d(C)[sp].d(A)[sp].d(G)[sp].d(C)[sp].[moe](A)[sp].[moe](G)[sp].[moe](G)[sp].[moe](A)}$$$$V2.0 | 54% and 53%
RNA1{[moe](G)[sp].[moe](G)[sp].[moe](C)[sp].[moe](A)[sp].[moe](T)[sp].d(A)[sp].d(G)[sp].d(C)[sp].d(A)[sp].d(G)[sp].d(C)[sp].d(A)[sp].d(G)[sp].d(G)[sp].[moe](A)[sp].[moe](T)}$$$$V2.0 | 55% and 41%
RNA1{[moe](A)[sp].[moe](G)[sp].[moe](A)[sp].d(T)[sp].d(G)[sp].d(A)[sp].d(G)[sp].d(G)[sp].d(C)[sp].d(A)[sp].d(T)[sp].d(A)[sp].[moe](G)[sp].[moe](C)[sp].[moe](A)[sp].[moe](G)[sp].[moe](C)}$$$$V2.0 | 69% and 63%
RNA1{[moe](G)[sp].[moe](A)[sp].[moe](A)[sp].d(C)[sp].d(C)[sp].d(A)[sp].d(C)[sp].d(T)[sp].d(G)[sp].d(A)[sp].d(A)[sp].d(C)[sp].[moe](A)[sp].[moe](A)[sp].[moe](A)[sp].[moe](T)}$$$$V2.0 | 46% and 42%
RNA1{[moe](A)[sp].[cEt](G)[sp].d(G)[sp].d(C)[sp].d(A)[sp].d(G)[sp].d(A)[sp].d(G)[sp].d(G)[sp].d(T)[sp].d(G)[sp].d(A)[sp].[cEt](A)[sp].[moe](A)[sp].[cEt](A)[sp].[moe](A)}$$$$V2.0 | 39% and 37%
RNA1{[moe](T)[sp].[moe](T)[sp].[moe](A)[sp].[moe](T)[sp].d(G)[sp].d(C)[sp].d(C)[sp].d(T)[sp].d(A)[sp].d(C)[sp].d(A)[sp].d(G)[sp].d(C)[sp].[moe](C)[sp].[moe](T)[sp].[moe](C)[sp].[moe](C)}$$$$V2.0 | 52% and 34%
RNA1{[moe](G)[sp].[moe](C)[sp].[moe](A)[sp].d(G)[sp].d(T)[sp].d(A)[sp].d(T)[sp].d(G)[sp].d(G)[sp].d(A)[sp].d(T)[sp].d(C)[sp].[moe](G)[sp].[moe](G)[sp].[moe](C)[sp].[moe](A)}$$$$V2.0 | 81% and 72%
